Laboratory results as given in ChEMBL document CHEMBL4680232, “Discovery of small molecules targeting GRP78 for antiangiogenic and anticancer therapy” (Eur J Med Chem, 2020).
Activity calls are given as the source filed them. The calls are words filed in the database; no cut-off is given here.

Legend:
[1] = molecular target: Endoplasmic reticulum chaperone BiP (Homo sapiens) (UniProt P11021); assay: Binding affinity to human GRP78 at 1 uM measured after 30 mins by UF-ASMS analysis relative to control
Endoplasmic reticulum chaperone BiP (Homo sapiens), sequence (P11021 whole entry): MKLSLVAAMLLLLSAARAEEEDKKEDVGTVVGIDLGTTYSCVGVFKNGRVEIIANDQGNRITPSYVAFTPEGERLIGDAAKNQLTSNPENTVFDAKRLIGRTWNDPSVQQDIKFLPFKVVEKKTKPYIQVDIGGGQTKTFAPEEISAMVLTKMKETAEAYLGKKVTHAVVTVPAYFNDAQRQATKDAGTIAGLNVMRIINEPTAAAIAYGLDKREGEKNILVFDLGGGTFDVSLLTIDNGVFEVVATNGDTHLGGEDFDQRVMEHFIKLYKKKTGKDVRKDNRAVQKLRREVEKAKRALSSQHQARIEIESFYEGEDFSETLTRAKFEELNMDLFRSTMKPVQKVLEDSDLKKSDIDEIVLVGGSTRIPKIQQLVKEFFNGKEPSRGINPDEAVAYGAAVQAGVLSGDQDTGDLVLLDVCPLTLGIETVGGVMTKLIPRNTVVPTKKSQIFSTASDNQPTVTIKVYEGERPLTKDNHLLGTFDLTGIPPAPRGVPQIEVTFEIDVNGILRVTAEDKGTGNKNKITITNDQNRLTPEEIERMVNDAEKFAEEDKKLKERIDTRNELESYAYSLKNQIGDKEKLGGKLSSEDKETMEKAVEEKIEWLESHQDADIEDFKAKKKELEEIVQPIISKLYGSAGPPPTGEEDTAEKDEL

HUVEC [2] = assay: Antiangiogenic activity against VEGF-stimulated HUVEC assessed as reduction in cell viability measured after 48 hrs by MTT assay; type: functional, cell-based; details: Homo sapiens
HUVEC [3] = assay: Antiangiogenic activity against VEGF-stimulated HUVEC assessed as reduction in cell viability at 100 uM measured after 48 hrs by MTT assay relative to control; type: functional
786-0 [4] = assay: Cytotoxicity against human 786-0 cells assessed reduction in cell viability after 48 hrs by MTT assay; type: functional
HUVEC [5] = assay: Antiangiogenic activity against VEGF-stimulated HUVEC assessed as reduction in cell viability at 10 uM measured after 48 hrs by MTT assay relative to control; type: functional
HUVEC [6] = assay: Antiangiogenic activity against VEGF-stimulated HUVEC assessed as reduction in cell viability up to 100 uM measured after 48 hrs by MTT assay; type: functional, cell-based; details: Homo sapiens, dose microM <=100, time 48.0 hrs
[7] = molecular target: Endoplasmic reticulum chaperone BiP (Homo sapiens) (UniProt P11021); details: dose 500.0 µM
Description: Binding affinity to N-terminal His-tagged GRP78 (unknown origin) assessed as change in melting temperature at 500 uM by differential scanning fluorimetry

786-0 [8] = assay: Cytotoxicity against human 786-0 cells assessed reduction in cell viability at 10 uM after 48 hrs by MTT assay; type: functional, cell-based
786-0 [9] = assay: Cytotoxicity against human 786-0 cells assessed reduction in cell viability at 100 uM after 48 hrs by MTT assay; type: functional, cell-based

SMILES | RBA [1] | CC50 (HUVEC [2]; time 48 hrs) | Activity (HUVEC [3]; Homo sapiens) | also measured
O=c1[nH]c2nccc(OCCc3ccccc3)c2[nH]c1=O | 1000% | – | – | –
COc1ccc(/C=C/C(=O)OCCc2ccccc2)cc1 | 64% | – | – | –
CC(C)CNC(=O)c1cccc2nc(-c3ccc(COC(=O)Cc4ccc(O)cc4)cc3)oc12 | – | 10 µM | Active | CC50 (786-0 [4]): 10 µM
Nc1ccc2[nH]c(=O)c(=O)[nH]c2c1 | 119% | – | – | –
CC(C)CNC(=O)c1c(-c2ccc(COc3ccc(CO)cc3)cc2)oc2ccccc12 | – | 10 µM | Active | CC50 (786-0 [4]): 10 µM
O=C(/C=C/c1ccc(O)c(O)c1)OCCc1ccc(Br)cc1 | 90% | – | – | Activity (HUVEC [3]): 50%; Activity (HUVEC [5]; Homo sapiens): inactive
CC(C)CNC(=O)c1c(-c2ccc(COC(=O)c3cc(O)cc(O)c3)cc2)oc2ccccc12 | – | 100 µM | Active | –
C=CCc1ccc(O)c(-c2ccc(O)c(CC=C)c2)c1 | – | – | Active | –
CC(C)CNC(=O)c1c(-c2ccc(COC(=O)c3ccccc3O)cc2)oc2ccccc12 | 501% | 10 µM | – | Activity (HUVEC [5]): 50%
CC(C)CNC(=O)c1c(-c2ccc(COC(=O)c3ccc(N(C)C)cc3)cc2)oc2ccccc12 | 54% | 100 µM | – | Activity (HUVEC [3]): 50%; Activity (HUVEC [5]; Homo sapiens): inactive
CCOS(=O)(=O)/C=C/c1ccc(OC)c(OCCc2nc(-c3ccccc3)sc2C)c1 | 129% | – | – | –
O=c1[nH]c2ccc(OCCc3ccccc3)nc2[nH]c1=O | 536% | – | – | –
CC(C)CNC(=O)c1c(-c2ccc(COC(=O)Cc3ccc(O)cc3)cc2)oc2ccccc12 | – | 100 µM | Active | –
CC(=O)Nc1ccc(OCc2ccc(-c3oc4ccccc4c3C(=O)NCC(C)C)cc2)cc1 | 61% | 10 µM | – | Activity (HUVEC [5]): 50%
CC(C)CNC(=O)c1c(-c2ccc(CO)cc2)oc2ccccc12 | 180% | – | – | CC50 (HUVEC [2]): inactive; Activity (HUVEC [6]): inactive
O=C(/C=C/c1ccc(O)c(O)c1)OCCc1ccccc1 | 98% | – | – | –
CC(C)CNC(=O)c1c(-c2ccc(COC(=O)c3ccc(O)cc3)cc2)oc2ccccc12 | – | 100 µM | Active | –
COc1cc(OC)cc(C(=O)OCc2ccc(-c3oc4ccccc4c3C(=O)NCC(C)C)cc2)c1 | 143% | 10 µM | – | EC50 (HUVEC [2]; 48 h): 1.51 µM; Activity (HUVEC [5]): 50%; CC50 (786-0 [4]): 10 µM; ΔTm [7]: 2.65 °C
COc1ccc(OC)c(/C=C(\C#N)c2ccc(-c3oc4ccccc4c3C(=O)NCC(C)C)cc2)c1 | – | 100 µM | – | –
COc1cc(OC)cc(C(=O)OCc2ccc(-c3nc4cccc(C(=O)NCC(C)C)c4o3)cc2)c1 | – | – | – | CC50 (HUVEC [2]): inactive
O=C(O[C@@H]1Cc2c(O)cc(O)cc2O[C@@H]1c1cc(O)c(O)c(O)c1)c1cc(O)c(O)c(O)c1 | 271% | – | – | Activity (HUVEC [6]): inactive
CCCCNC(=O)c1c(-c2ccc(COC(=O)c3ccc(O)cc3)cc2)oc2ccccc12 | – | 100 µM | Active | –
COC(=O)c1c(-c2ccc(COC(=O)c3cc(O)cc(O)c3)cc2)oc2ccccc12 | – | 10 µM | Active | Activity (786-0 [8]): inactive; Activity (786-0 [9]): Active; ΔTm [7]: -0.76 °C
Nc1ncnc2c1ncn2[C@@H]1O[C@H](COP(=O)(O)OP(=O)(O)OP(=O)(O)O)[C@@H](O)[C@H]1O | – | – | – | ΔTm [7]: 4.65 °C
CC(C)CNC(=O)c1c(-c2ccc(COC(=O)c3ccccc3)cc2)oc2ccccc12 | – | 100 µM | Active | –
CC(C)CNC(=O)c1c(-c2ccc(COC(=O)/C=C/c3ccc(O)cc3)cc2)oc2ccccc12 | – | 100 µM | Active | –
Cc1oc(-c2ccccc2)nc1CCOc1cccc2oc(CCC(=O)O)nc12 | 160% | – | – | –
